Data published in patent US20190059368A1, “3,5-DIMETHOXYSTILBENE ANALOGS AND USES THEREOF” (The United States of America, as represented by the …, priority 2017, published 2019).
≈ marks a conversion by molar mass, not a printed value. Like-named read-outs stand apart in the source and are kept apart here. Marks after values point to notes of the source that are not given here.

Key:
[1] = test system: Meloidogyne incognita eggs; test: M. incognita egg immersion assay (hatch and mobility of hatched J2); format: in vivo; conditions: for Percent mobile J2, assay 2: 2 days
Protocol: (§1) Two types of assays were used to investigate activity against M. incognita: i) eggs were immersed in solutions of the test compounds, and ii) second-stage juveniles (J2) previously hatched from eggs were immersed in the test solutions. These assays were conducted with procedures similar to those in Meyer, et al. (J. Nematol. 2006, 38, 333). M. incognita race 1 (originally isolated in 2013 from a field in Maryland) was grown in the greenhouse on pepper (Capsicum annuum L.) cultivar PA-136. Egg masses were hand-picked from plant roots, rinsed three times with sterile distilled H2O, and agitated in 0.6% NaClO for 3.5 minutes to separate and surface-sterilize eggs. The eggs were rinsed in sterile distilled H2O and stored overnight at 4° C. before use in egg immersion assays. To collect J2 for direct immersion into the test compounds, sterilized eggs were placed into a hatching chamber made with a Spectra/Mesh Nylon Filter (openings 25 μm in diameter; Spectrum Laboratories Inc., Rancho Dominguez, Calif., USA) in an autoclaved dish. J2 that passed through the filter within 3 days were used immediately for assays.
(§2) The assays were conducted in 96-well polystyrene plates. For the assays with immersed eggs, each well received approximately 50 eggs in 35 μl of sterile deionized water (SDW). For assays with previously hatched J2, a suspension of approximately 50 J2 in 35 μl of SDW was placed into each well. Each well then received 165 μl of treatment or control. The solvent used to dissolve the test chemicals was a 1:1:1 mixture referred to herein as CTD: equal parts Cremophor® EL Castor Oil (BASF Corporation, Vandalia, Ill., USA), Tween 80® (Sigma-Aldrich, St. Louis, Mo., USA), and DMSO (Sigma-Aldrich). A high and low rate of each compound was tested. After addition to the nematode suspensions in the wells, the low and high rates were 83.3 and 166.7 μg/ml of each test compound, respectively, dissolved in 0.5% and 1.0% of each of the three combined solvents. Controls were CTD equivalent to the low and high rates, and SDW. Because of the large number of treatments, the test compounds were divided into two groups for the egg immersion assays. The compounds tested in the egg immersion Assay 1 were 3, 6a, 6e, 6f, 6g, 6n, 7a, 7c, 7e, 7f, 7n, 11, 12, 16, and 17. The compounds tested in the egg immersion Assay 2 were 6b, 6h, 6i, 6j, 6k, 6l , 7b, 7g, 7h, 7i, 7j, 7k, 7l, and 7m (data not shown). Test compounds used for assays with previously hatched J2 were selected based on results with the egg assays. The five compounds tested were 6b, 6f, 6g, 6i, and 7k, high and low rates.
(§3) Each polystyrene culture plate was covered with a plastic adhesive sheet (Excel Scientific, Inc., Victorville, Calif., USA) and incubated at 25° C. Ten wells (water controls) or five wells (all other treatments) were used per treatment in each assay. In egg immersion assays, total numbers of hatched J2, and numbers of mobile and immobile J2, were counted after 2 and 7 days incubation in the test compounds. In the first assay with previously hatched J2, the numbers of mobile and immobile J2 were counted after 1 and 2 days incubation, the treatments removed and replaced with a SDW rinse, and 2 days later the mobile vs. immobile J2 counted again. In assays with 6g and 7k, high rates and counts were made on Days 1, 2, 4, and 6, without a SDW rinse.
Data from the M. incognita assays were analyzed with the statistical package JMP 11.2.0 (SAS Institute, Cary, N.C., USA). Differences among numbers of hatched J2 in each treatment, and among percentage of mobile J2 per treatment (number mobile J2/total J2×100), were determined by the ANOVA, and means were compared using Tukey Kramer's adjustment for multiple comparisons (P<0.05). For percent mobile J2 on Day 2 in egg immersion Assays 1 and 2, and Day 4 with the five compounds in the J2 immersion assay, data were log10 (x+1)-transformed before analysis. Data presented are nontransformed means.

[2] = test system: Meloidogyne incognita second-stage juveniles (J2); test: M. incognita assay with previously hatched J2 immersed in test solutions; conditions: in vivo
Protocol: as §1
as §2, with “The five compounds tested were 6b, 6f, 6g, 6i, and 7k, high and low rates.” left out
as §3, with “Ten wells (water controls) or five wells (all other treatments) were used per treatment in each assay.” left out, “In assays with 6g and 7k, high rates and counts were made on Days 1, 2, 4, and 6, without a SDW rinse.” left out
Data from the M. incognita assays were analyzed with the statistical package JMP 11.2.0 (SAS Institute, Cary, N.C., USA). Differences among numbers of hatched J2 in each treatment, and among percentage of mobile J2 per treatment (number mobile J2/total J2×100), were determined by the ANOVA, and means were compared using Tukey Kramer's adjustment for multiple comparisons (P<0.05). […]

[3] = test system: Ae. aegypti larvae; test: Larvicidal bioassay against 1-day-old Ae. aegypti larvae (screening and dose-response); format: in vivo, Aedes aegypti
Protocol: Analogs were screened for activity against Ae. aegypti larvae following a bioassay system described in Ali, A., et al. (J. Med. Entomol. 2014, 51, 824). Ae. aegypti larvae used in these studies were from a laboratory colony maintained at the Mosquito and Fly Research Unit at the Center for Medical, Agricultural and Veterinary Entomology, USDA-ARS, Gainesville, Fla. For larval bioassays, the eggs were hatched and the larvae were maintained at a temperature of 27±2° C. and 60±10% RH with a photoperiod regimen of 12:12 hour (Light:Dark). Five 1-day-old Ae. aegypti larvae were added into a droplet of H2O to each well of 24-well plates (BD Labware, Franklin Lakes, N.J., USA) by use of a disposable 22.5-cm Pasteur pipette. A quantity of 50 μl of larval diet (2% slurry of 3:2 beef liver powder (Now Foods, Bloomingdale, Ill., USA) and Brewer's yeast (Lewis Laboratories Ltd., Westport, Conn., USA) was added to each well using a Finnpipette stepper (Thermo Fisher, Vantaa, Finland). All chemicals tested were diluted in DMSO. A quantity of 11 μl of the test chemical was added to the labeled wells, while 11 μl of DMSO was added to control treatments. After the treatment application, the plates were swirled in clockwise and counterclockwise motions and front and back and side to side five times to ensure even mixing of the chemicals. Larval mortality was recorded 24 hours post-treatment. […] Three dosages, 100, 50, and 25 ppm, were used in the screening bioassay to determine the larvicidal activity and each treatment was replicated twice. […] Each treatment was replicated ten times. LC50 Values for larvicidal data were calculated using SAS, Proc Probit. Control mortality was corrected using the Abbott's formula.

[4] = test system: larvae of ORL and PR strains of Ae. aegypti; format: in vivo; conditions: for Percent Mortality: larvae, 24 h
Protocol: (§4) Further tests were performed on compounds 11 and 12 to determine their effect on larvae and adult mosquitoes. The compounds were tested in the standard bioassays using the Orlando (ORL), pesticide-susceptible strain and the Puerto Rico (PR), pyrethroid-resistant strain of Ae. aegypti. The ORL strain has been in continuous colony since 1952 with no pesticide exposure while the resistant PR strain was colonized from egg papers collected near San Juan, PR in June, 2012. The PR strain is available as a resistant reference strain through BEIResources/CDC. Mortality was determined in the larval assays at four different concentrations (1, 0.5, 0.25, and 0.1 μg/μl) and three concentrations for adults (6.25%, 3.125%, and 1.56%). Mortality was recorded 24 h post-application, and in all assays, a negative solvent and a positive control using permethrin were utilized; tests were done in triplicate. Assays were conducted according to published procedures as described in Wanner, J. et al. (Curr. Bioact. Compd. 2015, 11, 13).

[5] = test system: Mycobacterium intracellulare ATCC 23068; test: Antimicrobial microplate assay (modified CLSI, AlamarBlue); format: cell-based; conditions: ATCC23068, My. intracellulare
Protocol: (§5) All organisms were obtained from the American Type Culture Collection (ATCC; Manassas, Va., USA) and included the fungi Cryptococcus neoformans ATCC 90113 and the bacteria Staphylococcus aureus ATCC 29213, methicillin-resistant S. aureus ATCC 33591 (MRSA), and Mycobacterium intracellulare ATCC 23068. All organisms were tested using modified versions of the CLSI (formerly NCCLS) methods. For all organisms excluding My. intracellulare, optical density was used to monitor growth. Medium supplemented with 5% AlamarBlue® (BioSource International, Camarillo, Calif., USA) was utilized for growth detection of My. intracellulare. Samples (dissolved in DMSO) were serially diluted in 20% DMSO/saline and transferred (10 μl) in duplicate to 96-well flat-bottom microplates. Inocula were prepared by correcting the OD630 of microbe suspensions in Sabouraud Dextrose for Cr. neoformans, cation-adjusted Mueller-Hinton (Difco) at pH 7.3 for Staphylococcus spp., and 5% AlamarBlue® (BioSource International) in Middlebrook 7H9 broth with OADC enrichment, pH=7.0 for My. intracellulare, to afford an assay volume of 200 μl and final target inocula of: Cr. neoformans.: b 1.5×10^3, My. intracellulare: 2.0×10^6, and Staphylococcus spp.,: 5.0×10^5 CFU/ml. Final sample test concentrations were 1/100th the DMSO stock concentration. […] All organisms were read at either 530 nm using the Biotek Powerwave XS plate reader (Bio-Tek Instruments, VT) or 544ex1590em (My. intracellulare) using the Polarstar Galaxy Plate Reader (BMG LabTechnologies, Germany) before and after incubation: Staphylococcus spp. at 35° C. for 16-20 h, Cr. neoformans at 35° C. for 70-74 h, and My. intracellulare at 37° C. and 10% CO2 for 70-74 h. IC50 Values (concentrations that afford 50% inhibition relative to controls) werecalculated using XLfit 4.2 software (IDBS, Alameda, Calif.) using fit model 201.

[6] = test system: adults of ORL and PR strains of Ae. aegypti; test: Adult mosquito assay, ORL and PR strains; format: in vivo; conditions: for Percent Mortality: adults, 6.25%, 24 h
Protocol: as §4

[7] = test system: Cryptococcus neoformans ATCC 90113; test: Antimicrobial microplate assay (modified CLSI); format: cell-based; conditions: Cryptococcus neoformans, ATCC90113; Cr. neoformans
Protocol: All organisms were obtained from the American Type Culture Collection (ATCC; Manassas, Va., USA) and included the fungi Cryptococcus neoformans ATCC 90113 and the bacteria Staphylococcus aureus ATCC 29213, methicillin-resistant S. aureus ATCC 33591 (MRSA), and Mycobacterium intracellulare ATCC 23068. All organisms were tested using modified versions of the CLSI (formerly NCCLS) methods. For all organisms excluding My. intracellulare, optical density was used to monitor growth. Medium supplemented with 5% AlamarBlue® (BioSource International, Camarillo, Calif., USA) was utilized for growth detection of My. intracellulare. Samples (dissolved in DMSO) were serially diluted in 20% DMSO/saline and transferred (10 μl) in duplicate to 96-well flat-bottom microplates. Inocula were prepared by correcting the OD630 of microbe suspensions in Sabouraud Dextrose for Cr. neoformans, cation-adjusted Mueller-Hinton (Difco) at pH 7.3 for Staphylococcus spp., and 5% AlamarBlue® (BioSource International) in Middlebrook 7H9 broth with OADC enrichment, pH=7.0 for My. intracellulare, to afford an assay volume of 200 μl and final target inocula of: Cr. neoformans.: b 1.5×10^3, My. intracellulare: 2.0×10^6, and Staphylococcus spp.,: 5.0×10^5 CFU/ml. Final sample test concentrations were 1/100th the DMSO stock concentration. Drug controls (Ciprofloxacin (ICN Biomedicals, Ohio, USA) for bacteria and Amphotericin B (ICN Biomedicals) for fungi) were included in each assay. All organisms were read at either 530 nm using the Biotek Powerwave XS plate reader (Bio-Tek Instruments, VT) or 544ex1590em (My. intracellulare) using the Polarstar Galaxy Plate Reader (BMG LabTechnologies, Germany) before and after incubation: Staphylococcus spp. at 35° C. for 16-20 h, Cr. neoformans at 35° C. for 70-74 h, and My. intracellulare at 37° C. and 10% CO2 for 70-74 h. IC50 Values (concentrations that afford 50% inhibition relative to controls) werecalculated using XLfit 4.2 software (IDBS, Alameda, Calif.) using fit model 201.

[8] = test system: Staphylococcus aureus ATCC 29213; test: Antimicrobial microplate assay (modified CLSI); format: cell-based; conditions: ATCC29213, S. aureus
Protocol: as §5

[9] = test system: methicillin-resistant S. aureus ATCC 33591 (MRSA); test: Antimicrobial microplate assay (modified CLSI); format: cell-based; conditions: Staphylococcus aureus
Protocol: as §5

[10] = 1-day-old larvae, mortality 24 hours post-treatment

COc1ccc(/C=C\c2cc(OC)c(C)c(OC)c2)cc1OC [Compound 7k, (Z)-1,3-dimethoxy-5-(3,4-dimethoxystyryl)-2-methylbenzene]
Percent mobile J2, assay 2 ([1]; high rate (166.7 μg/ml)): 72.2% | Percent mobile J2, assay 2 ([1]; low rate (83.3 μg/ml)): 92.5% | effect on mobility of J2 hatched from eggs immersed in solutions (in words) ([1]; in vivo): some suppressive effect on mobility | effect on mobility of J2 previously hatched in water and immersed directly (in words) [2]: had an effect on J2 mobility

COc1cc(/C=C/c2ccc(O)c(CC=C(C)C)c2)cc(OC)c1 [Compound 11, (E)-4-(3,5-dimethoxystyryl)-2-(3-methylbut-2-en-1-yl)phenol]
LC50 (LD50 converted to μM) ([3]; 1-day-old larvae, 24 hours): 45.31 µM | LD50 (95% CI) [3, 10]: 14.7^b ppm | LD90 (95% CI) [3, 10]: 34.7 ppm | larvicidal activity (in words) ([3]; screening at 100, 50 and 25 ppm): high larvicidal activity | effectiveness against larvae (in words) ([4]; ORL and PR strains): highly effective | Percent Mortality ([4]; ORL strain, 0.1 μg/μl): 100% | Percent Mortality ([4]; ORL strain, 0.25 μg/μl): 100% | Percent Mortality ([4]; ORL strain, 0.5 μg/μl): 100% | Percent Mortality ([4]; ORL strain, 1.0 μg/μl): 100% | Percent Mortality ([4]; PR strain, 0.1 μg/μl): 93.3 ± 11.5% | Percent Mortality ([4]; PR strain, 0.25 μg/μl): 100% | Percent Mortality ([4]; PR strain, 0.5 μg/μl): 100% | Percent Mortality ([4]; PR strain, 1.0 μg/μl): 100% | IC50 [5]: 47.2 µM | MIC [5]: 61.7 µM (≈ 20 µg/mL) | effectiveness against adult mosquitoes (in words) ([6]; both strains): somewhat effective | IC50 [7]: 13.6 µM | MIC [7]: 30.8 µM (≈ 10 µg/mL) | IC50 [8]: 13.1 µM | MIC [8]: 30.8 µM (≈ 10 µg/mL) | IC50 [9]: 9.1 µM | MIC [9]: 15.4 µM (≈ 5 µg/mL)

CC1(C)C(C=C(Cl)Cl)C1C(=O)OCc1cccc(Oc2ccccc2)c1 (stereo not drawn) [Permethrin, permethrin, reference compound]
Percent Mortality ([4]; ORL strain, 0.1 μg/μl): 100% | Percent Mortality ([4]; PR strain, 0.1 μg/μl): 93.3 ± 11.5% | Percent Mortality ([6]; ORL strain): 100% | Percent Mortality ([6]; PR strain): 85 ± 10%
